Experimental data taken from patent US20040063763A1, “2-METHOXYIMINO-2(PYRIDINYLOXYMETHYL)PHENYL ACETAMIDES USEFUL AS FUNGICIDES” (priority 2003, published 2004).

How the values were obtained:
Format in all cases: in vivo
Erysiphe graminis = test: Powdery Mildew of Wheat 1-day protectant whole plant test (ERYSGT 1DP); conditions: 100 ppm spray to run off, wheat (cultivar Monon), inoculated after 24 hours
Phytophthora infestans = conditions: 100 ppm spray to run off, tomatoes (cultivar Rutgers), inoculated after 24 hours
Puccinia recondita = test: Brown rust of wheat 1-day protectant whole plant test (PUCCRT 1DP); conditions: 100 ppm spray to run off, wheat (cultivar Monon), inoculated after 24 hours

CNC(=O)/C(=N/OC)c1ccccc1COc1ncc(C2=NOCC2)cc1C [Compound 1, (2E)-2-[2˜({[5-(4,5-dihydroisoxazol-3-yl)-3-methylpyridin-2-yl]oxy}methyl)phenyl]-2-(methoxyimino)-N-methylethanamide]
>95%: ERYSGT 1DP percent control of the plant disease (Erysiphe graminis) | PHYTIN 1DP percent control of the plant disease (Phytophthora infestans) | PUCCRT 1DP percent control of the plant disease (Puccinia recondita)
